Consider ten compounds from US9809623B2, “α4β7 peptide monomer and dimer antagonists” (Protagonist Therapeutics, Inc., priority 2014, dated 2017).

By half-life is commonly meant the time in which the quantity being followed falls by half. Lower therefore signals rapid decline. Broadly, the IC50 is the midpoint of a concentration-inhibition curve.

Read-outs that look alike come from different tables or passages of the source. Numbered stars: 1 amine (or outer) side, 2 acyl side, 3 side chain; on linkers, the order of the positions; unused ones are H or OH. Bridge positions count the residues as written; N and C are the ends. Square brackets hold non-standard residues; d marks the D form. Peptide text beside a SMILES is read from it. I, II: the chains in the order shown. Phe(4-tBu) = CC(C)(C)c1ccc(C[C@H](N)C(=O)O)cc1; 2Nal = N[C@@H](Cc1ccc2ccccc2c1)C(=O)O; Diglycolyl = O=C(COCC(=O)[*:2])[*:1]; NMeR = CN[C@@H](CCCNC(=N)N)C(=O)O; β3hE = N[C@@H](CCC(=O)O)CC(=O)O; NMeK = CN[C@@H](CCCCN)C(=O)O; Pen = CC(C)(S)[C@H](N)C(=O)O

Data set [1] can be described thus: Dithiothreitol (DTT) Redox Stability Assay. The settings on record: Table 4-C, t1/2, 0.5 mM DTT. Type of data set: physicochemical. On the procedure: For each peptide tested, the DTT stability assay was conducted by adding 5 μl of a 10 mM peptide stock solution in DMSO to 1 ml of 100 mM Tris-Cl, pH 7.5 (final peptide concentration is 50 μM). At time 0 min, 5 ul of a freshly thawed 100 mM DTT solution was added to the incubation tube containing the peptide, such that the final DTT concentration was 0.5 mM. The reactions were incubated at room temperature. At different time points up to 120 minutes (20 min, 40 min, 80 min, 120 min), 50 ul aliquots were removed, and the reaction was quenched by adding 10 μl of 5M acetic acid. To measure disappearance of the parent peptide, the quenched samples (30 μl) were analyzed by reverse phase HPLC and UV absorbance at 220 nm. The fraction oxidized remaining was graphed versus time, and half-lives were calculated by fitting to a first-order exponential decay equation using Excel.

Data set [2] is described as follows: Simulated Gastric Fluid (SGF) Assay. It counts as in vitro ADME. The settings on record: pig, simulated gastric fluid (SGF) with porcine pepsin, pH 2; Table 4-C, t1/2. On the procedure: SGF was prepared by adding 20 mg NaCl, 32 mg porcine pepsin (MP Biochemicals, catalog 02102599), and 70 μl HCl to 10 ml water (final pH=2). Aliquots of SGF (0.5 ml each) were pre-warmed at 37° C. For each peptide tested, to start the reaction, 1 μl of peptide stock solution (10 mM in DMSO) was added to 0.5 ml SGF and thoroughly mixed such that the final peptide concentration was 20 μM. The reactions were incubated at 37° C. with gentle shaking. At each time point (0, 15, 30, 60 min), 50 μl aliquots were removed and added to 200 ul acetonitrile containing 0.1% formic acid to quench the reaction. Samples were stored at 4° C. until the end of the experiment and centrifuged at 10,000 rpm for 5 minutes. Aliquots of the supernatant were removed, diluted 1:1 into distilled water containing internal standard, and analyzed by LCMS/MS. Percent remaining at each timepoint was calculated based on the peak area response ratio of test compound to internal standard. Time 0 was set to 100%, and all later timepoints were calculated relative to time 0. Half-lives were calculated by fitting to a first-order exponential decay equation using GraphPad.

Data set [3] deals with T1, α4β7 (Mus musculus, UniProt P26011+Q00651).
T1 construct: host or cells: TK1 mouse T cells
The data set is described as follows: α4β7 Cell Adhesion Assay (Mouse), TK1 cells. Type of data set: cell-based. The method in brief:
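Mouse TK1 cells in DMEM with 0.1% BSA, 10 mM HEPES pH 7 and 1 mM MnCl2 were allowed to adhere for 30-45 min at 37 °C to plates coated with recombinant human MAdCAM-1 Fc (200 ng/well) in the presence of serially diluted peptides. Adherent cells were quantified by MTT absorbance at 570 nm, with no-cell background subtracted for dose response.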

[4] abbreviates: Table 3-B, Potency (α4β7), range classes, read-out: α4β7 cell(MU) IC50.

T1 sequence (Q00651 34-1039 limits assumed): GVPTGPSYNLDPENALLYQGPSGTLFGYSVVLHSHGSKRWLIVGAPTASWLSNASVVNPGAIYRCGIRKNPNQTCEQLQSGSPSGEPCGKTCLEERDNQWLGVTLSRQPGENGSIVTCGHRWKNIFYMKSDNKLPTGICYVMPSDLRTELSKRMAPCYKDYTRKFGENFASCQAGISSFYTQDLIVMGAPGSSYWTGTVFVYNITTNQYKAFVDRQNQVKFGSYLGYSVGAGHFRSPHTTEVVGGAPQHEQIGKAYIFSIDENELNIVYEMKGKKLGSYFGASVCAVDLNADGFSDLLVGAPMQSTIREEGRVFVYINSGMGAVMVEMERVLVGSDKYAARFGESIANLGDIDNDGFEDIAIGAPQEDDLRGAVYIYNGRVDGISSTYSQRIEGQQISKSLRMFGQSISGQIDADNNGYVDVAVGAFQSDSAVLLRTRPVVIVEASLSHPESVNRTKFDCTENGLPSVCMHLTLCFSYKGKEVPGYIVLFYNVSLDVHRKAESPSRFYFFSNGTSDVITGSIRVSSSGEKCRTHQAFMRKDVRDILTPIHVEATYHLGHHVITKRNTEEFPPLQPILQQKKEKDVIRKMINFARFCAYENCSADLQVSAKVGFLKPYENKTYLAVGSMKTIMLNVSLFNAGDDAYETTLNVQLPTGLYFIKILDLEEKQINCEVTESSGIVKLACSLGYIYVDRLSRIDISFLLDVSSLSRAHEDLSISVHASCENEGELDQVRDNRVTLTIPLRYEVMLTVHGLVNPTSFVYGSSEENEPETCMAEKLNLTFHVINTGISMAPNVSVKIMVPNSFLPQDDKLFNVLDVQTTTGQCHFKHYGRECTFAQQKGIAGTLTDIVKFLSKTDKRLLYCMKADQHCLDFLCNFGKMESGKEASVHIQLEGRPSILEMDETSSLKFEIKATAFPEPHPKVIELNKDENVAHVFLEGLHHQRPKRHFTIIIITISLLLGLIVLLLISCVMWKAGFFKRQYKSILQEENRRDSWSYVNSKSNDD
T1 sequence (P26011 20-806): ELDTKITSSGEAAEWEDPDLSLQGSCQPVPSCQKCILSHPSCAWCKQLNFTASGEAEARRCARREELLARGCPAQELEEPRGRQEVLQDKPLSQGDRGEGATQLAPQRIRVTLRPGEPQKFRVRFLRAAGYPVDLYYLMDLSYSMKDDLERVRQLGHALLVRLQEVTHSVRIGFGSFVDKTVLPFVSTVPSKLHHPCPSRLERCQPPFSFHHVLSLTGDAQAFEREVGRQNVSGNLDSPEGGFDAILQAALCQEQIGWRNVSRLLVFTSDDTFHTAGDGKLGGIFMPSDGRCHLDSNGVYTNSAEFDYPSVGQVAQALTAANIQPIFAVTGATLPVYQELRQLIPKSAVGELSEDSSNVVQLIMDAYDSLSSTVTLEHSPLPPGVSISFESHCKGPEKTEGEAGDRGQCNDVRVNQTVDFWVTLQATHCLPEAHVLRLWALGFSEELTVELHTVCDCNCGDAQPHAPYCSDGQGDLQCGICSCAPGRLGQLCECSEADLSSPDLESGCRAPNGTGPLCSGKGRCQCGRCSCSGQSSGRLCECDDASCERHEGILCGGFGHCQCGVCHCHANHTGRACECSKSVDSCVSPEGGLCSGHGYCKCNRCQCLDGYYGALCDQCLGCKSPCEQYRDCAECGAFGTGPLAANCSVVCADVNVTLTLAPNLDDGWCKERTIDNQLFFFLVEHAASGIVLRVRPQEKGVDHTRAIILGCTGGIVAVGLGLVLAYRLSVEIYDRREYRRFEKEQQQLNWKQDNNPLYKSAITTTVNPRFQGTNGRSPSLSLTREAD

As to `CC(=O)N[C@@H]1C(=O)N(C)[C@@H](CCCNC(=N)N)C(=O)N[C@@H](CO)C(=O)N[C@@H](CC(=O)O)C(=O)N[C@@H]([C@@H](C)O)C(=O)N[C@@H](CC(C)C)C(=O)N[C@H](C(=O)N[C@@H](Cc2ccc3ccccc3c2)C(=O)N[C@@H](CCC(=O)O)C(=O)N[C@H](CCCCNC(=O)COCC(=O)NCCCC[C@@H](NC(=O)[C@H](CCC(=O)O)NC(=O)[C@H](Cc2ccc3ccccc3c2)NC(=O)[C@H]2NC(=O)[C@H](CC(C)C)NC(=O)[C@H]([C@@H](C)O)NC(=O)[C@H](CC(=O)O)NC(=O)[C@H](CO)NC(=O)[C@H](CCCNC(=N)N)N(C)C(=O)[C@@H](NC(C)=O)C(C)(C)SSC2(C)C)C(N)=O)C(N)=O)C(C)(C)SSC1(C)C` [compound 212, (Ac-Pen-N-Me-R-S-D-T-L-Pen-2-Nal-E-k-NH2)2-DIG] (I: Ac-[Pen][NMeR]SDTL[Pen][2Nal]E[dK]-NH2 / II: Ac-[Pen][NMeR]SDTL[Pen][2Nal]E[dK]-NH2; disulfide I:1-I:7, II:1-II:7 (inferred); linker I:10-II:10 via Diglycolyl (inferred)), the “DTT Min” value in data set [1] was above 120 min. Besides, the half-life at 20 μM in data set [2] is 39 min.

For the compound `CC(=O)N[C@@H]1C(=O)N(C)[C@@H](CCCNC(=N)N)C(=O)N[C@@H](CO)C(=O)N[C@@H](CC(=O)O)C(=O)N[C@@H]([C@@H](C)O)C(=O)N[C@@H](CC(C)C)C(=O)N[C@H](C(=O)N[C@@H](Cc2ccc3ccccc3c2)C(=O)N[C@@H](CCC(=O)O)C(=O)N[C@H](CCCCN)C(N)=O)C(C)(C)SSC1(C)C` [compound 210, Ac-Pen-N-Me-R-S-D-T-L-Pen-2-Nal-E-k-NH2] (Ac-[Pen][NMeR]SDTL[Pen][2Nal]E[dK]-NH2; disulfide 1-7), in data set [1], the “DTT Min” value is above 120 min.

On to `CC(=O)N[C@@H]1C(=O)N[C@@H](CCCNC(=N)N)C(=O)N[C@@H](CO)C(=O)N[C@@H](CC(=O)O)C(=O)N[C@@H]([C@@H](C)O)C(=O)N[C@@H](CC(C)C)C(=O)N[C@H](C(=O)N[C@H](CCCCNC(=O)COCC(=O)NCCCC[C@@H](NC(=O)[C@@H]2CSSC(C)(C)[C@H](NC(C)=O)C(=O)N[C@@H](CCCNC(=N)N)C(=O)N[C@@H](CO)C(=O)N[C@@H](CC(=O)O)C(=O)N[C@@H]([C@@H](C)O)C(=O)N[C@@H](CC(C)C)C(=O)N2)C(N)=O)C(N)=O)CSSC1(C)C` [compound 207, (Ac-Pen-R-S-D-T-L-C-k-NH2)2-DIG] (I: Ac-[Pen]RSDTLC[dK]-NH2 / II: Ac-[Pen]RSDTLC[dK]-NH2; disulfide I:1-I:7, II:1-II:7 (inferred); linker I:8-II:8 via Diglycolyl (inferred)), for which the “DTT Min” value in data set [1] was found to be 35 min. Besides, the half-life at 20 μM in data set [2] was above 60 min. In the case of `CC(=O)N[C@@H]1C(=O)N(C)[C@@H](CCCNC(=N)N)C(=O)N[C@@H](CO)C(=O)N[C@@H](CC(=O)O)C(=O)N[C@@H]([C@@H](C)O)C(=O)N[C@@H](CC(C)C)C(=O)N[C@H](C(=O)N[C@@H](Cc2ccc(C(C)(C)C)cc2)C(=O)N[C@@H](CCC(=O)O)CC(=O)N(C)[C@@H](CCCCNC(=O)COCC(=O)NCCCC[C@@H](C(N)=O)N(C)C(=O)C[C@H](CCC(=O)O)NC(=O)[C@H](Cc2ccc(C(C)(C)C)cc2)NC(=O)[C@H]2NC(=O)[C@H](CC(C)C)NC(=O)[C@H]([C@@H](C)O)NC(=O)[C@H](CC(=O)O)NC(=O)[C@H](CO)NC(=O)[C@H](CCCNC(=N)N)N(C)C(=O)[C@@H](NC(C)=O)C(C)(C)SSC2(C)C)C(N)=O)C(C)(C)SSC1(C)C` [compound 149] (I: Ac-[Pen][NMeR]SDTL[Pen][Phe(4-tBu)][β3hE][NMeK]-NH2 / II: Ac-[Pen][NMeR]SDTL[Pen][Phe(4-tBu)][β3hE][NMeK]-NH2; disulfide I:1-I:7, II:1-II:7; linker I:10-II:10 via Diglycolyl), in data set [3] (setting [4]), the IC50 was below 10 nM.

With `CC(=O)N[C@@H]1C(=O)N(C)[C@@H](CCCNC(=N)N)C(=O)N[C@@H](CO)C(=O)N[C@@H](CC(=O)O)C(=O)N[C@@H]([C@@H](C)O)C(=O)N[C@@H](CC(C)C)C(=O)N[C@H](C(=O)N[C@@H](Cc2c[nH]c3ccccc23)C(=O)N[C@@H](CCC(=O)O)C(=O)N[C@H](CCCCNC(=O)COCC(=O)NCCCC[C@@H](NC(=O)[C@H](CCC(=O)O)NC(=O)[C@H](Cc2c[nH]c3ccccc23)NC(=O)[C@H]2NC(=O)[C@H](CC(C)C)NC(=O)[C@H]([C@@H](C)O)NC(=O)[C@H](CC(=O)O)NC(=O)[C@H](CO)NC(=O)[C@H](CCCNC(=N)N)N(C)C(=O)[C@@H](NC(C)=O)C(C)(C)SSC2(C)C)C(=O)O)C(=O)O)C(C)(C)SSC1(C)C` [compound 78] (I: Ac-[Pen][NMeR]SDTL[Pen]WE[dK]-OH / II: Ac-[Pen][NMeR]SDTL[Pen]WE[dK]-OH; disulfide I:1-I:7, II:1-II:7; linker I:10-II:10 via Diglycolyl), the IC50 in data set [3] (setting [4]) was below 10 nM.

As to `CC(=O)N[C@H]1CSSC[C@@H](C(=O)NCC(=O)N[C@@H](CCC(=O)O)C(N)=O)NC(=O)[C@H](CC(C)C)NC(=O)[C@H]([C@@H](C)O)NC(=O)[C@H](CC(=O)O)NC(=O)[C@H](CO)NC(=O)[C@H](CCCNC(=N)N)NC1=O` [compound 194, Ac-C-R-S-D-T-L-C-G-E-NH2] (Ac-CRSDTLCGE-NH2; disulfide 1-7), in data set [1], the “DTT Min” value was found to be 5.5 min. Still for that read-out and setting: with `CC(=O)N[C@H]1CSSC[C@@H](C(=O)NCC(=O)N[C@@H](CCC(=O)O)C(N)=O)NC(=O)[C@H](CC(C)C)NC(=O)[C@H]([C@@H](C)O)NC(=O)[C@H](CC(=O)O)NC(=O)[C@H](CO)NC(=O)[C@H](CCCNC(=N)N)N(C)C1=O` [compound 198, Ac-C-N-Me-R-S-D-T-L-C-G-E-NH2] (Ac-C[NMeR]SDTLCGE-NH2; disulfide 1-7) the figure was 4.5 min.

`CC(=O)N[C@@H]1C(=O)N(C)[C@@H](CCCNC(=N)N)C(=O)N[C@@H](CO)C(=O)N[C@@H](CC(=O)O)C(=O)N[C@@H]([C@@H](C)O)C(=O)N[C@@H](CC(C)C)C(=O)N[C@H](C(=O)N[C@@H](Cc2c[nH]c3ccccc23)C(=O)N[C@H](CCC(=O)O)C(=O)N[C@H](CCCCNC(=O)COCC(=O)NCCCC[C@@H](NC(=O)[C@@H](CCC(=O)O)NC(=O)[C@H](Cc2c[nH]c3ccccc23)NC(=O)[C@H]2NC(=O)[C@H](CC(C)C)NC(=O)[C@H]([C@@H](C)O)NC(=O)[C@H](CC(=O)O)NC(=O)[C@H](CO)NC(=O)[C@H](CCCNC(=N)N)N(C)C(=O)[C@@H](NC(C)=O)C(C)(C)SSC2(C)C)C(N)=O)C(N)=O)C(C)(C)SSC1(C)C` [compound 68] (I: Ac-[Pen][NMeR]SDTL[Pen]W[dE][dK]-NH2 / II: Ac-[Pen][NMeR]SDTL[Pen]W[dE][dK]-NH2; disulfide I:1-I:7, II:1-II:7; linker I:10-II:10 via Diglycolyl): the half-inhibitory concentration (IC50) in data set [3] (setting [4]) is below 10 nM. In the case of `CC(=O)N[C@H]1CSSC[C@@H](C(N)=O)NC(=O)[C@H](CC(C)C)NC(=O)[C@H]([C@@H](C)O)NC(=O)[C@H](CC(=O)O)NC(=O)[C@H](CO)NC(=O)[C@H](CCCNC(=N)N)NC1=O` [compound 195, Ac-C-R-S-D-T-L-C-NH2] (Ac-CRSDTLC-NH2; disulfide 1-7), the “DTT Min” value in data set [1] is 4.7 min. As to `CC(=O)N[C@@H]1C(=O)N(C)[C@@H](CCCNC(=N)N)C(=O)N[C@@H](CO)C(=O)N[C@@H](CC(=O)O)C(=O)N[C@@H]([C@@H](C)O)C(=O)N[C@@H](CC(C)C)C(=O)N[C@H](C(=O)N[C@@H](Cc2c[nH]c3ccccc23)C(=O)N[C@@H](CCC(=O)O)CC(=O)N[C@H](CCCCNC(=O)COCC(=O)NCCCC[C@@H](NC(=O)C[C@H](CCC(=O)O)NC(=O)[C@H](Cc2c[nH]c3ccccc23)NC(=O)[C@H]2NC(=O)[C@H](CC(C)C)NC(=O)[C@H]([C@@H](C)O)NC(=O)[C@H](CC(=O)O)NC(=O)[C@H](CO)NC(=O)[C@H](CCCNC(=N)N)N(C)C(=O)[C@@H](NC(C)=O)C(C)(C)SSC2(C)C)C(N)=O)C(N)=O)C(C)(C)SSC1(C)C` [compound 213, [Ac-Pen-(N-Me-Arg)-Ser-Asp-Thr-Leu-Pen-Trp-(β-homoGlu)-(D-Lys)-NH2]2-DIG] (I: Ac-[Pen][NMeR]SDTL[Pen]W[β3hE][dK]-NH2 / II: Ac-[Pen][NMeR]SDTL[Pen]W[β3hE][dK]-NH2; disulfide I:1-I:7, II:1-II:7; linker I:10-II:10 via Diglycolyl), in data set [3] (Table 4-B, read-out: Cell Adhesion α4β7 Mouse IC50), the IC50 came out at 4.2 nM. Further, the half-life at 20 μM in data set [2] was above 180 min.
